Test results published in ChEMBL document CHEMBL1201862, “PubChem BioAssay data set” (2004).
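Compound exposure: 48 hours, 5 concentrations, 96-well plates. Here, GI50 denotes the concentration required for 50% inhibition of growth.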 Activity calls are given as the source filed them. No stated cut-off is given here; in the data, active = GI50 up to about 1.1 µM and inactive = higher.

Columns and labels:
Assay in all cases: inhibition of tumour cell growth, NCI panel, 48 h
A498 = test system: A498
A549 = test system: A549
ACHN = test system: ACHN
CAKI-1 = test system: CAKI-1
CCRF-CEM = test system: CCRF-CEM
COLO 205 = test system: COLO 205
DLD-1 = test system: DLD-1
DMS-114 = test system: DMS-114
DMS-273 = test system: DMS-273
EKVX = test system: EKVX
HCC 2998 = test system: HCC 2998
HCT-116 = test system: HCT-116
HCT-15 = test system: HCT-15
HL-60 = test system: HL-60
HOP-18 = test system: HOP-18
HOP-62 = test system: HOP-62
HOP-92 = test system: HOP-92
HT-29 = test system: HT-29
IGROV-1 = test system: IGROV-1
K562 = test system: K562
KM-20L2 = test system: KM-20L2
KM12 = test system: KM12
LOX IMVI = test system: LOX IMVI
LXFL 529 = test system: LXFL 529
M14 = test system: M14
Malme-3M = test system: Malme-3M
NCI-H226 = test system: NCI-H226
NCI-H23 = test system: NCI-H23
NCI-H460 = test system: NCI-H460
NCI-H522 = test system: NCI-H522
OVCAR-3 = test system: OVCAR-3
OVCAR-4 = test system: OVCAR-4
OVCAR-5 = test system: OVCAR-5
OVCAR-8 = test system: OVCAR-8
RXF 393 = test system: RXF 393
SF-268 = test system: SF-268
SF-295 = test system: SF-295
SF-539 = test system: SF-539
SK-MEL-28 = test system: SK-MEL-28
SK-MEL-2 = test system: SK-MEL-2
SK-MEL-5 = test system: SK-MEL-5
SK-OV-3 = test system: SK-OV-3
SN12C = test system: SN12C
SNB-19 = test system: SNB-19
SNB-75 = test system: SNB-75
SNB-78 = test system: SNB-78
SW-620 = test system: SW-620
TK-10 = test system: TK-10
U-251 = test system: U-251
UACC-257 = test system: UACC-257
UACC-62 = test system: UACC-62
UO-31 = test system: UO-31
XF498 = test system: XF498
786-0 = test system: 786-0
M19-MEL = test system: M19-MEL
MOLT-4 = test system: MOLT-4
RPMI-8226 = test system: RPMI-8226
BT-549 = test system: BT-549
DU-145 = test system: DU-145
Hs-578T = test system: Hs-578T
MCF7 = test system: MCF7
MDA-MB-231 = test system: MDA-MB-231
MDA-MB-435 = test system: MDA-MB-435
MDA-N = test system: MDA-N
NCI/ADR-RES = test system: NCI/ADR-RES
PC-3 = test system: PC-3
SR = test system: SR
T47D = test system: T47D

## COc1ccccc1OCC(COC(=O)Nc1ccccc1)OC(=O)Nc1ccccc1 (configuration not stated)
A498
  GI50: 60.3 µM (inactive)
A549
  GI50: 50.6 µM (inactive)
ACHN
  GI50: > 100 µM (inactive)
CAKI-1
  GI50: 20.3 µM (inactive)
CCRF-CEM
  GI50: > 100 µM (inactive)
COLO 205
  GI50: 94.2 µM (inactive)
DLD-1
  GI50: > 100 µM (inactive)
DMS-114
  GI50: 47.1 µM (inactive)
DMS-273
  GI50: 54.6 µM (inactive)
EKVX
  GI50: > 100 µM (inactive)
HCC 2998
  GI50: > 100 µM (inactive)
HCT-116
  GI50: 61.1 µM (inactive)
HCT-15
  GI50: > 100 µM
HL-60
  GI50: 40.6 µM (inactive)
HOP-18
  GI50: 59.3 µM (inactive)
HOP-62
  GI50: 56.6 µM (inactive)
HOP-92
  GI50: 6.25 µM (inactive)
HT-29
  GI50: 59.8 µM (inactive)
IGROV-1
  GI50: > 100 µM (inactive)
K562
  GI50: > 100 µM (inactive)
KM-20L2
  GI50: > 100 µM (inactive)
KM12
  GI50: 68.4 µM (inactive)
LOX IMVI
  GI50: 25.9 µM (inactive)
LXFL 529
  GI50: 27.5 µM (inactive)
M14
  GI50: 91.8 µM (inactive)
Malme-3M
  GI50: 60.8 µM (inactive)
NCI-H226
  GI50: 36.2 µM (inactive)
NCI-H23
  GI50: 73.1 µM (inactive)
NCI-H460
  GI50: 48.5 µM (inactive)
NCI-H522
  GI50: 49.4 µM (inactive)
OVCAR-3
  GI50: > 100 µM (inactive)
OVCAR-4
  GI50: 55.3 µM (inactive)
OVCAR-5
  GI50: > 100 µM (inactive)
OVCAR-8
  GI50: 37.4 µM (inactive)
RXF 393
  GI50: 12.8 µM (inactive)
SF-268
  GI50: 57.5 µM (inactive)
SF-295
  GI50: 39.1 µM (inactive)
SF-539
  GI50: 17.2 µM (inactive)
SK-MEL-28
  GI50: > 100 µM (inactive)
SK-MEL-2
  GI50: 23.1 µM (inactive)
SK-MEL-5
  GI50: 79.3 µM (inactive)
SK-OV-3
  GI50: > 100 µM (inactive)
SN12C
  GI50: 28.5 µM (inactive)
SNB-19
  GI50: 31.5 µM (inactive)
SNB-75
  GI50: 17.1 µM (inactive)
SNB-78
  GI50: 43.3 µM (inactive)
SW-620
  GI50: > 100 µM (inactive)
TK-10
  GI50: > 100 µM (inactive)
U-251
  GI50: 41.4 µM (inactive)
UACC-257
  GI50: > 100 µM (inactive)
UACC-62
  GI50: 32.6 µM (inactive)
UO-31
  GI50: 49.3 µM (inactive)
XF498
  GI50: 60.4 µM (inactive)

## CC[P+]1(CC)CCCC1
786-0
  GI50: > 100 µM (inactive)
A498
  GI50: > 10 µM (inactive)
A549
  GI50: > 100 µM (inactive)
ACHN
  GI50: > 100 µM (inactive)
CAKI-1
  GI50: > 100 µM (inactive)
CCRF-CEM
  GI50: > 100 µM (inactive)
COLO 205
  GI50: > 100 µM (inactive)
DLD-1
  GI50: > 100 µM (inactive)
DMS-114
  GI50: > 100 µM (inactive)
DMS-273
  GI50: > 100 µM (inactive)
EKVX
  GI50: > 100 µM (inactive)
HCC 2998
  GI50: > 100 µM (inactive)
HCT-15
  GI50: > 100 µM
HOP-18
  GI50: > 100 µM (inactive)
HOP-62
  GI50: > 100 µM (inactive)
HT-29
  GI50: > 100 µM (inactive)
IGROV-1
  GI50: > 100 µM (inactive)
K562
  GI50: > 100 µM (inactive)
KM-20L2
  GI50: > 100 µM (inactive)
KM12
  GI50: > 100 µM (inactive)
LOX IMVI
  GI50: > 100 µM (inactive)
LXFL 529
  GI50: > 100 µM (inactive)
M14
  GI50: > 100 µM (inactive)
M19-MEL
  GI50: > 100 µM (inactive)
MOLT-4
  GI50: > 100 µM (inactive)
Malme-3M
  GI50: > 100 µM (inactive)
NCI-H23
  GI50: > 100 µM (inactive)
NCI-H460
  GI50: > 100 µM (inactive)
OVCAR-3
  GI50: > 100 µM (inactive)
OVCAR-4
  GI50: > 100 µM (inactive)
OVCAR-5
  GI50: > 100 µM (inactive)
OVCAR-8
  GI50: > 100 µM (inactive)
RPMI-8226
  GI50: > 100 µM (inactive)
RXF 393
  GI50: > 100 µM (inactive)
SF-268
  GI50: > 100 µM (inactive)
SF-295
  GI50: > 100 µM (inactive)
SF-539
  GI50: > 100 µM (inactive)
SK-MEL-28
  GI50: > 100 µM (inactive)
SK-MEL-2
  GI50: > 100 µM (inactive)
SK-MEL-5
  GI50: > 100 µM (inactive)
SK-OV-3
  GI50: > 100 µM (inactive)
SN12C
  GI50: > 100 µM (inactive)
SNB-19
  GI50: > 100 µM (inactive)
SNB-75
  GI50: > 100 µM (inactive)
SNB-78
  GI50: > 100 µM (inactive)
SW-620
  GI50: > 100 µM (inactive)
TK-10
  GI50: > 100 µM (inactive)
U-251
  GI50: > 100 µM (inactive)
UACC-257
  GI50: > 100 µM (inactive)
UACC-62
  GI50: > 100 µM (inactive)
UO-31
  GI50: > 100 µM (inactive)
XF498
  GI50: > 100 µM (inactive)

## O=c1[nH]c(=O)n(C2OC(CO)C(O)C(O)C2O)cc1F (configuration not stated)
786-0
  GI50: > 100 µM (inactive)
A498
  GI50: > 100 µM (inactive)
A549
  GI50: > 100 µM (inactive)
ACHN
  GI50: > 100 µM (inactive)
BT-549
  GI50: > 100 µM (inactive)
CAKI-1
  GI50: > 100 µM (inactive)
CCRF-CEM
  GI50: > 100 µM (inactive)
COLO 205
  GI50: > 100 µM (inactive)
DLD-1
  GI50: > 100 µM (inactive)
DMS-114
  GI50: > 100 µM (inactive)
DU-145
  GI50: > 100 µM (inactive)
EKVX
  GI50: > 100 µM (inactive)
HCC 2998
  GI50: > 100 µM (inactive)
HCT-116
  GI50: > 100 µM (inactive)
HCT-15
  GI50: > 100 µM
HL-60
  GI50: > 64.4 µM (inactive)
HOP-18
  GI50: > 100 µM (inactive)
HOP-62
  GI50: > 100 µM (inactive)
HOP-92
  GI50: > 12.7 µM (inactive)
HT-29
  GI50: > 100 µM (inactive)
Hs-578T
  GI50: > 100 µM (inactive)
IGROV-1
  GI50: > 100 µM (inactive)
K562
  GI50: > 100 µM (inactive)
KM-20L2
  GI50: > 100 µM (inactive)
KM12
  GI50: > 100 µM (inactive)
LOX IMVI
  GI50: > 100 µM (inactive)
LXFL 529
  GI50: > 100 µM (inactive)
M14
  GI50: > 100 µM (inactive)
M19-MEL
  GI50: > 100 µM (inactive)
MCF7
  GI50: > 100 µM (inactive)
MDA-MB-231
  GI50: > 100 µM (inactive)
MDA-MB-435
  GI50: > 100 µM (inactive)
MDA-N
  GI50: > 100 µM (inactive)
MOLT-4
  GI50: > 100 µM (inactive)
Malme-3M
  GI50: > 100 µM (inactive)
NCI-H226
  GI50: > 100 µM (inactive)
NCI-H23
  GI50: > 100 µM (inactive)
NCI-H460
  GI50: > 100 µM (inactive)
NCI-H522
  GI50: > 100 µM (inactive)
NCI/ADR-RES
  GI50: > 100 µM (inactive)
OVCAR-3
  GI50: > 100 µM (inactive)
OVCAR-4
  GI50: > 100 µM (inactive)
OVCAR-5
  GI50: > 100 µM (inactive)
OVCAR-8
  GI50: > 100 µM (inactive)
PC-3
  GI50: > 100 µM (inactive)
RPMI-8226
  GI50: > 100 µM (inactive)
RXF 393
  GI50: > 76.2 µM (inactive)
SF-268
  GI50: > 100 µM (inactive)
SF-295
  GI50: > 100 µM (inactive)
SF-539
  GI50: > 100 µM (inactive)
SK-MEL-28
  GI50: > 100 µM (inactive)
SK-MEL-2
  GI50: > 100 µM (inactive)
SK-MEL-5
  GI50: > 100 µM (inactive)
SK-OV-3
  GI50: > 100 µM (inactive)
SN12C
  GI50: > 100 µM (inactive)
SNB-19
  GI50: > 100 µM (inactive)
SNB-75
  GI50: > 88.5 µM (inactive)
SNB-78
  GI50: > 100 µM (inactive)
SR
  GI50: > 100 µM (inactive)
SW-620
  GI50: > 100 µM (inactive)
T47D
  GI50: > 100 µM (inactive)
TK-10
  GI50: > 100 µM (inactive)
U-251
  GI50: > 100 µM (inactive)
UACC-257
  GI50: > 100 µM (inactive)
UACC-62
  GI50: > 100 µM (inactive)
UO-31
  GI50: > 100 µM (inactive)
XF498
  GI50: > 100 µM (inactive)
